Measured values as given in patent publication US12448347B2, “Polymorphic forms of (R)-oxybutynin hydrochloride” (APNIMED, INC. (DELAWARE), priority 2020, dated 2025).

Tests used:
Assay type in all cases: physicochemical
[1] = DVS analysis (moisture sorption/desorption)
[2] = Humidity stress in open containers with XRPD analysis; details: for XRPD form after humidity exposure / appearance of solids after humidity exposure: 24 hours, open container
Protocol: Samples of R-oxybutynin HCl Form B were exposed to 75% RH and 85% RH for 24 hours, in open containers.

[3] = Solid form stability / interconversion on drying, storage or slurrying (XRPD); details: for XRPD pattern after prolonged slurrying: slurry in MIBK and in heptanes separately, RT (2 weeks)
[4] = Hygroscopicity of the isolated solids (observation); details: HCl

SMILES	hygroscopicity by DVS ([1]; DVS analysis)	physical form of post-DVS sample (XRPD) ([1]; XRPD after DVS)	weight gain (DVS) ([1]; between 75% and 95% RH)	weight change upon desorption (DVS) ([1]; desorption from 95% to 5% RH)	weight gain (DVS) ([1]; from 5% RH to 95% RH)	XRPD form after humidity exposure ([2]; 75% RH)	appearance of solids after humidity exposure ([2]; 75% RH)	XRPD form after humidity exposure ([2]; 85% RH)	appearance of solids after humidity exposure ([2]; 85% RH)	outcome of humidity stress ([2]; 93% RH)	XRPD pattern after prolonged slurrying [3]	hygroscopicity of isolated solids [4]	crystalline form obtained after drying ([3]; dried under vacuum at RT for 24 hours)	crystalline form obtained upon storage ([3]; storage at ambient conditions)	crystalline form obtained after high temperature drying (XRPD) ([3]; vacuum drying at 50° C. (24 h, 2 days in Table 2), HCl)
CCN(CC)CC#CCOC(=O)[C@](O)(c1ccccc1)C1CCCCC1.Cl [Form B, (R)-oxybutynin HCl]	hygroscopic	Form B remained	23%	All the weight gained was lost	26.6%	consistent with Form B	remained free flowing	composed of Form B	not free flowing	deliquesced	Form C diffraction patterns were observed				
CCN(CC)CC#CCOC(=O)[C@](O)(c1ccccc1)C1CCCCC1.Cl [Form A, (R)-oxybutynin HCl]											Form C diffraction patterns were observed	hygroscopic	Form B	Form B	Form C was isolated
CCN(CC)CC#CCOC(=O)[C@](O)(c1ccccc1)C1CCCCC1.Cl [Form C, (R)-oxybutynin HCl]												non-hygroscopic			
